Assay results from patent US10149476B2, “Pesticidal plant extract containing loline derivatives” (GRASSLANZ TECHNOLOGY LTD, priority 2007, dated 2018).
Where “and” joins values, the source holds several entries; their conditions need not be identical. Identical values can stand only once.

What was measured:
[1] = Uptake of pyrrolizidine alkaloids into endophyte free Ryegrass plants after watering composition onto roots; assay type: in vivo; conditions: leaf sub-sample after 21 days; for Pyrrolizidine Alkaloid Content, Average: average of 5 endophyte free Ryegrass plants, Grinding Number 1 composition watered on roots; for Pyrrolizidine Alkaloid Content: individual endophyte free Ryegrass plants 1-5, 100 ml Grinding Number 1 composition watered on roots every second day
Experimental: (§1) Pesticidal composition from Grinding Number 1 of Example 1 was watered onto the roots of endophyte free Fescue and Ryegrass plants grown in a glasshouse under controlled conditions into silica sand filled pots. Control plants were included in the plant samples and were watered with nil endophyte ground extract containing no pesticidal composition. Trial plants were each watered with 100 ml of each composition every second day with nutrient watered on alternate days. After 21 days, a sub-sample of leaf material was analysed to determine the uptake of pesticidal composition into the plants tested.
(§2) The results shown below in Table 2 for endophyte free Fescue plants and Table 3 for endophyte free Ryegrass plants clearly indicate transfer of the measured pyrrolizidine alkaloid compounds from the composition and into the plants via their root system

[2] = Uptake of pyrrolizidine alkaloids into cabbage plants grown in silica sand; assay type: in vivo, Cabbage brassica; conditions: cabbage treated with composition of Grind Number 3 watered onto pots
Experimental: Cabbage brassica were tested with the pesticidal composition of Grind Number 3 of Example 1 watered onto the pots in which the trial cabbage plants were grown in silica sand.

[3] = Uptake of pyrrolizidine alkaloids into endophyte free Fescue plants after watering composition onto roots; assay type: in vivo; conditions: leaf sub-sample after 21 days; for Pyrrolizidine Alkaloid Content, Average: average of 5 endophyte free Fescue plants, Grinding Number 1 composition watered on roots; for Pyrrolizidine Alkaloid Content: individual endophyte free Fescue plants 1-5, 100 ml Grinding Number 1 composition watered on roots every second day
Experimental: as §1, §2

Compound	Pyrrolizidine Alkaloid Content, Average [1]	Pyrrolizidine Alkaloid Content [1]	Pyrrolizidine Alkaloid Content [2]	Pyrrolizidine Alkaloid Content, Average [3]	Pyrrolizidine Alkaloid Content [3]
CC(=O)N(C)[C@@H]1[C@H]2[C@@H]3CCN2C[C@H]1O3 [NAL, N-acetylloline]	92 mg/kg or ppm	40 mg/kg or ppm and 37 mg/kg or ppm and 214 mg/kg or ppm and 87 mg/kg or ppm and 84 mg/kg or ppm	6 mg/kg or ppm	75 mg/kg or ppm	56 mg/kg or ppm and 38 mg/kg or ppm and 119 mg/kg or ppm and 69 mg/kg or ppm and 95 mg/kg or ppm
CC(=O)N[C@H]1[C@H]2[C@@H]3CCN2C[C@H]1O3 [NANL, N-acetylnorloline]	14 mg/kg or ppm	0 mg/kg or ppm (3×) and 44 mg/kg or ppm and 27 mg/kg or ppm	0 mg/kg or ppm	0 mg/kg or ppm	0 mg/kg or ppm
CN(C=O)C1C2[C@@H]3CCN2C[C@H]1O3 (stereo partly drawn) [NFL, N-formylloline]	644 mg/kg or ppm	352 mg/kg or ppm and 340 mg/kg or ppm and 1152 mg/kg or ppm and 697 mg/kg or ppm and 680 mg/kg or ppm	148 mg/kg or ppm	479 mg/kg or ppm	405 mg/kg or ppm and 382 mg/kg or ppm and 648 mg/kg or ppm and 479 mg/kg or ppm and 482 mg/kg or ppm
